Measured values reported in patent US20230114207A1, “THE COMBINATION OF CYCLIN DEPENDENT KINASE 7 INHIBITOR AND IMMUNOTHERAPY FOR TREATMENT OF CANCER” (Dana-Farber Cancer Institute, Inc., priority 2019, published 2023).

System: INSM1, ASCL1, NFIB and MYC in DMS79 and GLC16
Assay: RT-qPCR of super enhancer (SE)-associated genes
Type: cell-based, human
Settings: 24 hr
Procedure: Cell pellets were collected and then subjected to total RNA extraction using RNeasy Plus Mini Kit (QIAGEN, Cat #74136) according to the manufacturer's instructions, or using TRIzol:Chloroform phase-separation by centrifugation followed by RNA precipitation using isopropanol. The extracted RNA was reversely transcribed into cDNA using the High-Capacity RNA-to-cDNA™ Kit (Thermo Fisher Scientific, Cat #4387406) according to the manufacturer's instructions. The obtained cDNA samples were diluted and used for RT-qPCR. PowerUp™ SYBR™ Green Master Mix (Thermo Fisher Scientific, Cat #A25742) or TaqMan Gene Expression Master Mix (Life Technologies, Cat #4369514). Gene specific primers with sequences listed in Table 3 were used for PCR amplification and detection on the StepOnePlus™ Real-Time PCR System (Thermo Fisher Scientific). RT-qPCR data were normalized to Actb (mouse cells) or GUSB (human cells) and presented as fold changes of gene expression in the test sample compared to the control.

Q: With CN(C)C/C=C/C(=O)Nc1ccc(C(=O)Nc2cccc(Nc3ncc(Cl)c(-c4c[nH]c5ccccc45)n3)c2)cc1 [THZ1, reference compound] as the compound, how does the “expression of super enhancer (SE)-associated genes including INSM1, ASCL1, NFIB and MYC” value read?
A: The value was “significant reduction”.
